Tests used:
[1] = system: EMT6 mouse breast carcinoma syngeneic tumor; test: Study 2: EMT6 mouse syngeneic tumor model, subcutaneous, anti-tumor efficacy; assay type: in vivo, female BALB/c mice; settings: for GRI (%) Day 21: vs vehicle; for Complete Regressions: n=10/group, 60-day study; for Combination Assessment / Synergy Score %: data through Day 21
Description: (§1) Studies 1 and 2: EMT6 is a mouse breast carcinoma cell line. EMT6 mouse syngeneic tumor model was generated by subcutaneous (sc) inoculation with 0.2×10^6 EMT6 cells (cell suspension) in nine to ten week old female BALB/c mice (Vital River Laboratory Animal Technology Co., Ltd., Beijing, China) in the flank. When the mean tumor volume reached 60 mm^3 in Study 1 and 75 mm^3 in Study 2 the animals were randomized into one vehicle control and seven treatment groups (n=10/group). Mice were then dosed with vehicle (phosphate buffered saline (PBS)) or Compound No. 14 or 10 Gy Radiation or Compound No. 14 plus 10 Gy Radiation over an eight-day period. Tumor growth and body weight were measured three times per week during the treatment and post-treatment periods. Mice were humanely euthanized once they reached their humane endpoint or until study termination on day 72 (Study 1) or on day 60 (Study 2).
(§2) Studies 1 and 2: A 0.1 mg/mL stock solution of Compound No. 14 was formulated in PBS and administered intravenously (IV) based on exact animal body weight on each day of treatment, using a dosing volume of 10 mL/kg body weight. Final doses received were 1.0 mg/kg. […] Compound No. 14 was administered on a Q3D schedule for 3 doses (Day 2, 5 and 8) in single agent treatment group and in combination treatment groups. Dose formulation of Compound No. 14 was prepared once and utilized for dosing on Days 2, 5 and 8.
(§3) Radiation treatment for Studies 1 and 2 was performed using RadSource RS 2000 X-ray irradiator (Rad Source Technologies). Animals received 1.046 Gy/minute of radiation and approximately 9.5 min was needed to reach a 10 Gy dose delivery. Animals were anesthetized prior to placement in irradiation chamber using isoflurane and checked for reflexes. Radiation beam was focused on tumor with manual positioning. Radiation was administered via manual positioning in a single 10 Gy dose on either day 0, 2 or 4 in Study 1, and on either day 0, 1, 2, 3 or 4 in Study 2.
(§4) Tumors were measured three times weekly using vernier calipers. Tumor volumes were calculated using standard equation: V=W^2×L/2, where V=volume, W=width, and L=length for the tumor. When mean tumor volumes reached approximately 60 mm^3 for Study 1, 75 mm^3 for Study 2, and 110 mm^3 for Study 3, mice were randomized into eight groups (n=10/group) in Studies 1 and 2, and nine groups (n=8/group) in Study 3. These groups were then dosed with vehicle (PBS), Compound No. 14, Radiation, anti-mPD-1 or isotype control, or combinations of these agents as described in Tables 1a, 2a, and 3a. Tumor size and body weight were measured three times a week for the duration of each study. Mice were euthanized for Studies 1 and 2 when their tumor volumes reached greater than 10% of their body weight or when an individual tumor exceeded the humane end-point for size (>2 cm) or when an animal lost 20% of their body weight relative to the start of the study or lost 15% of their body weight in any 24 hr time frame. Mice were euthanized in Study 3 when tumor volume exceeded 2,000 mm^3 or an animal lost more than 20% of their body weight relative to the start of study.
(§5) Growth Rate Inhibition: The differences in the tumor growth trends over time between pairs of treatment groups were assessed by fitting each animal's data to a simple exponential growth model and comparing the mean growth rates of the two groups, as described in more detail below. The difference in the growth rates was summarized by the GRI, which is the reduction in growth rate experienced by the treatment group relative to that of the reference group, expressed as a fraction of the vehicle growth rate.
(§6) μT and μC are the mean tumor growth rates for the treatment and reference groups, respectively. μV is the mean tumor growth rate for the vehicle group, which in most cases is the same as the reference group.
(§7) A GRI greater than 100% is interpreted as tumor regression when the vehicle group is the same as the reference group. […]

[2] = system: EMT6 mouse breast carcinoma syngeneic tumor; test: Study 1: EMT6 mouse syngeneic tumor model, subcutaneous, anti-tumor efficacy; assay type: in vivo, female BALB/c mice; settings: for GRI (%) Day 19: vs vehicle; for Number of Complete Regressions: n=10/group, 72-day study; for Combination Assessment / Synergy Score %: data through Day 19
Description: as §1, §2, §3, §4, §5, §6, §7

[3] = Compound No. 14 1.0 mg/kg IV Q3D×3 (Days 2, 5, 8), single agent
[4] = Compound No. 14 1.0 mg/kg IV Q3D×3 + Radiation (10Gy) (Day 2)
[5] = Compound No. 14 1.0 mg/kg IV Q3D×3 + Radiation (10Gy) (Day 3)
[6] = Compound No. 14 1.0 mg/kg IV Q3D×3 + Radiation (10Gy) (Day 4)
[7] = Compound No. 14 + Radiation (10Gy) (Day 0)
[8] = Compound No. 14 + Radiation (10Gy) (Day 1)
[9] = Compound No. 14 + Radiation (10Gy) (Day 2)
[10] = Compound No. 14 + Radiation (10Gy) (Day 3)
[11] = Compound No. 14 + Radiation (10Gy) (Day 4)
[12] = Compound No. 14 1.0 mg/kg IV Q3D×3 + 10Gy Radiation (Day 0)
[13] = Compound No. 14 1.0 mg/kg IV Q3D×3 + 10Gy Radiation (Day 2)
[14] = Compound No. 14 1.0 mg/kg IV Q3D×3 + 10Gy Radiation (Day 4)
[15] = Compound No. 14 + Radiation (10 Gy) Day 0
[16] = Compound No. 14 + Radiation (10 Gy) Day 2
[17] = Compound No. 14 + Radiation (10 Gy) Day 4

## Nc1ncnc2c1ncn2[C@@H]1O[C@@H]2COP(=O)(S)O[C@@H]3[C@H](O)[C@@H](COP(=O)(S)O[C@H]2[C@H]1F)O[C@H]3n1cc(F)c2c(=O)[nH]cnc21 (stereo partly drawn) [Compound No. 14]
[1]; [3]
  GRI (%) Day 21: 20%
[1]; Compound No. 14 1.0 mg/kg IV Q3D×3 + Radiation (10Gy) (Day 0)
  GRI (%) Day 21: 60%
[1]; Compound No. 14 1.0 mg/kg IV Q3D×3 + Radiation (10Gy) (Day 1)
  GRI (%) Day 21: 62%
[1]; [4]
  Complete Regressions: 2
  GRI (%) Day 21: 68%
[1]; [5]
  Complete Regressions: 4
  GRI (%) Day 21: 64%
[1]; [6]
  Complete Regressions: 2
  GRI (%) Day 21: 60%
[1]; [7]
  Combination Assessment: additive
  Synergy Score %: −20%
[1]; Compound No. 14 + Radiation (10Gy) (Day 0), listed as Compound No.14
  Combination Assessment: Additive
[1]; [8]
  Combination Assessment: Additive
  Synergy Score %: −22%
[1]; [9]
  Combination Assessment: synergistic
  Synergy Score %: −28%
[1]; Compound No. 14 + Radiation (10Gy) (Day 2), listed as Compound No.14
  Combination Assessment: Synergistic
[1]; [10]
  Combination Assessment: Additive
  Synergy Score %: −24%
[1]; [11]
  Combination Assessment: Additive
  Synergy Score %: −20%
[2]; [3]
  GRI (%) Day 19: 30%
[2]; [12]
  Number of Complete Regressions: 1
  GRI (%) Day 19: 82%
[2]; [13]
  Number of Complete Regressions: 1
  GRI (%) Day 19: 60%
[2]; [14]
  Number of Complete Regressions: 2
  GRI (%) Day 19: 67%
[2]; Compound No. 14 1.0 mg/kg IV Q3D×3, single agent
  Number of Complete Regressions: 0
[2]; [15]
  Combination Assessment: Additive
  Synergy Score %: −20%
[2]; [16]
  Combination Assessment: Additive
  Synergy Score %: 7%
[2]; [17]
  Combination Assessment: additive
  Synergy Score %: −10%
[2]; Compound No. 14 + Radiation (10 Gy) Day 4, listed as Compound No.14
  Combination Assessment: Additive

Source: patent US20240335464A1, “ADMINISTRATION OF STING AGONIST, CHECKPOINT INHIBITORS, AND RADIATION” (Takeda Pharmaceutical Company Limited, priority 2020, published 2024)
